{"source": "patent US20150290105A1", "about": "“COMPOSITION COMPRISING SYRINGARESINOL FOR IMPROVING THE SKIN” (AMOREPACIFIC CORPORATION, priority 2011, published 2015)", "type_in_all_cases": "cell-based", "key": {"involucrin": {"test_system": "involucrin", "experiment": "Involucrin expression promoting effect in human keratinocytes", "settings": "HaCaT cells, FIG. 5", "experimental": "(§1) Human keratinocyte HaCaT cells were cultured in substantially the same manner as in Test Example 10.\ncDNA was synthesized in substantially the same manner as in Test Example 10 and the expression pattern of the filaggrin, involucrin and GAPDH genes was monitored substantially the same manner as in Test Example 10 using the synthesized cDNA and predesigned primers and probes (Applied Biosystems; […]; GAPDH, Hs99999905_ml)."}, "collagen IV": {"test_system": "collagen IV", "experiment": "UV-induced collagen breakdown in human keratinocytes (western blot)", "settings": "HaCaT cells, 50 μM, UVB 30 mJ/cm^2, FIG. 6", "experimental": "as §1\nThe cultured cells were treated with trypsin to obtain a single-cell suspension. Then, the cells were distributed in a 6-well plate, with 2×10^5 cells per well, and cultured for 24 hours. Subsequently, after replacing the medium with DMEM not containing fetal bovine serum and culturing again for 24 hours, the cells were treated with 50 μM syringaresinol dissolved in DMSO. After treating for 24 hours, the cells were washed with PBS and UVB of 30 mJ/cm^2 was irradiated in PBS. After discarding the PBS, the cells were added to a medium containing syringaresinol of the same concentration. As a control group, the cells were cultured in the same manner without treating with syringaresinol. […] Then, after centrifuging at 4° C. for 10 minutes with 15,000 g, the supernatant was recovered and protein was quantitated using Bio-Rad Protein Dye ReagentTM. […] Bands on the film were scanned with PowerLook 2100 XL (UMAX) and analyzed with the image-analyzing program ImageMaster 2D Elite (Amersham Bioscience)."}, "SIRT1": {"test_system": "SIRT1", "experiment": "SIRT1 expression promoting effect in human fibroblasts", "settings": "HDF cells, 20, 50 or 100 μM, 24 hours, FIG. 4", "experimental": "Human keratinocyte HaCaT cells or human fibroblast HDF cells were cultured under the condition of 37° C. and 5% CO2 in DMEM ((Gibco 1210-0038)) containing 10% fetal bovine serum.\nThe cultured cells were treated with syringaresinol dissolved in DMSO at a concentration of 20, 50 or 100 μM for 24 hours. Separately from this, the cells were treated with DMSO of 1/1000 of the volume of the culture medium as a negative control. After treating with the test substance, the cells were washed twice with cold PBS and RNA was extracted using TRIzol reagent (Invitrogen). Then, cDNA was synthesized using 1 μg/μL of the extracted RNA and a reverse transcription system (Promega). The expression pattern of the SIRT1 and GAPDH genes was monitored using the synthesized cDNA and predesigned primers and probes (Applied Biosystems; SIRT1, Hs01009006_ml; GAPDH, Hs99999905_ml). PCR reaction and analysis were carried out using the Rotor-Gene 3000 system (Corbett Research, Sydney, Australia). The result is shown in FIG. 3 (keratinocytes) and FIG. 4 (fibroblasts)."}, "[1]": {"test_system": "Melanocytes (Mel-Ab cells)", "experiment": "Test of cytotoxicity (crystal violet cell viability) in mouse melanocytes", "settings": "24 hours", "experimental": "Cytotoxicity was tested for syringaresinol in mouse melanocytes as follows.\nMelanocytes (Mel-Ab cells) derived from C57BL/6 (treated with Dooley et al.'s method) were cultured under the condition of 37° C. and 5% CO2 in Dulbecco's modified Eagle's medium (DMEM) containing 10% fetal bovine serum, 100 nM 12-O-tetradecanoylphorbol-13-acetate and 1 nM cholera toxin. The cultured Mel-Ab cells were detached with 0.25% trypsin-EDTA, cultured in a 24-well plate to a concentration of 10^5 cells/well and then treated with the syringaresinol prepared in Example. After culturing for 24 hours, the cells were washed with phosphate buffered saline (PBS, pH 7.2) and then stained using 0.1% crystal violet (Sigma) and 10% ethanol (EtOH) for 5 minutes at room temperature. After completely removing free crystal violet, the cells were washed 3 times with PBS (pH 7.2). The stained cells were treated with 95% ethanol (EtOH) for 1 hour at room temperature to extract crystal violet. The absorbance of the extract was measured at 540 nm using the Lambda 25 spectrophotometer (PerkinElmer) and cell viability (%) was calculated according to Equation 1.\nCell viability (%)=(A/B)×100 [Equation 1]\nA: absorbance in the presence of syringaresinol\nB: absorbance in the absence of syringaresinol"}}, "data": [{"smiles": "COc1cc(C2OCC3C(c4cc(OC)c(O)c(OC)c4)OCC23)cc(OC)c1O", "note": "(stereo not shown) [Syringaresinol, syringaresinol]", "values": [{"measurement": "Expression of involucrin", "setting": "involucrin", "result": "increases the expression"}, {"measurement": "UV-induced collagen breakdown", "setting": "collagen IV", "result": "inhibits collagen breakdown"}, {"measurement": "Increase of SIRT1 expression", "setting": "SIRT1", "result": "≥ 4", "unit": "times"}, {"measurement": "Cell viability (%)", "setting": "[1]", "result": 98.6, "unit": "%"}]}]}
